Test results from patent US20080138837A1, “Methods and kits for detecting and measuring ADAMTS13/FXI complexes” (priority 2004, published 2008).
Ends that are not written are not given here. * marks the point of attachment. DABCYL = CN(C)c1ccc(/N=N/c2ccc(C(=O)*)cc2)cc1; EDANS = O=S(=O)(O)c1cccc2c(NCCN*)cccc12; AMC = Cc1cc(=O)oc2cc(N*)ccc12

Assays:
[1] = test system: form of ADAMTS13 found on platelets; assay: ADAMTS13 activity on isolated platelets using a FRET substrate; format: biochemical, human; details: 8 μg/ml substrate, 37° C., Ex 360 nm/Em 440 nm, FIG. 4
Description: (§1) Blood was collected by venopuncture into collection tubes containing 0.12 M sodium citrate, an anti-coagulant. The citrated blood was centrifuged at 700 rpm for 10 minutes. The supernatant was removed and saved as the platelet rich plasma (PRP) fraction. The PRP was centrifuged at 10,000 rpm for 20 minutes. The supernatant was removed and saved as the platelet poor plasma (PPP) fraction. The pellet contained the platelets, which were washed by resuspending in 10 mM Tris-HCl pH 8.0 buffer and centrifuging at 10,000 rpm for 10 minutes. The isolated platelets were resuspended in buffer and used in experiments.
ADAMTS13 activity was measured using a fluorescent substrate attached to a donor moiety and an acceptor moiety that functions by fluorescence resonance energy transfer (FRET). The ADAMTS13 selective substrate, NH2-Arg-Lys(DABCYL)-NLVYMVTGD(EDANS)-Arg-COOH, was used in this example. […] The intact peptidyl substrate has low fluorescence, due to quenching of the […]. Cleavage of the substrate between the tyrosine and methionine of the peptide sequence results in an increase in fluorescence.
Isolated platelets in 10 mM Tris-HCl pH 8.0 assay buffer were incubated with a final concentration of 8 μg/ml of the FRET substrate at 37° C. The fluorescence was measured in a spectrofluorometric plate reader (Ex 360 nm/Em 440 nm). […]

[2] = test system: platelet ADAMTS13; assay: Enhancement of platelet ADAMTS13 activity by treatment with FXIa; format: biochemical, human; details: 0.3 ng/ml FXIa, FIG. 11
Description: Washed normal platelets from 200 μL of PRP were resuspended in 1 ml of assay buffer. Washed platelets from 1 ml of PRP from a subject with acquired TTP were resuspended in 50 μL of assay buffer. Normal or TTP platelets (10 μl) were added to 10 mM Tris-HCl pH 8.0 assay buffer (80 μl) or assay buffer containing 0.3 ng/ml of FXIa (80 μl). LVY-AMC substrate (10 μl of 2 mM) was added and the fluorescence was monitored (Ex 360 nm/Em 440 nm) for 1500 seconds. FXIa at 0.3 ng/ml was used as a control.

[3] = test system: T1, platelet ADAMTS13
T1 sequence: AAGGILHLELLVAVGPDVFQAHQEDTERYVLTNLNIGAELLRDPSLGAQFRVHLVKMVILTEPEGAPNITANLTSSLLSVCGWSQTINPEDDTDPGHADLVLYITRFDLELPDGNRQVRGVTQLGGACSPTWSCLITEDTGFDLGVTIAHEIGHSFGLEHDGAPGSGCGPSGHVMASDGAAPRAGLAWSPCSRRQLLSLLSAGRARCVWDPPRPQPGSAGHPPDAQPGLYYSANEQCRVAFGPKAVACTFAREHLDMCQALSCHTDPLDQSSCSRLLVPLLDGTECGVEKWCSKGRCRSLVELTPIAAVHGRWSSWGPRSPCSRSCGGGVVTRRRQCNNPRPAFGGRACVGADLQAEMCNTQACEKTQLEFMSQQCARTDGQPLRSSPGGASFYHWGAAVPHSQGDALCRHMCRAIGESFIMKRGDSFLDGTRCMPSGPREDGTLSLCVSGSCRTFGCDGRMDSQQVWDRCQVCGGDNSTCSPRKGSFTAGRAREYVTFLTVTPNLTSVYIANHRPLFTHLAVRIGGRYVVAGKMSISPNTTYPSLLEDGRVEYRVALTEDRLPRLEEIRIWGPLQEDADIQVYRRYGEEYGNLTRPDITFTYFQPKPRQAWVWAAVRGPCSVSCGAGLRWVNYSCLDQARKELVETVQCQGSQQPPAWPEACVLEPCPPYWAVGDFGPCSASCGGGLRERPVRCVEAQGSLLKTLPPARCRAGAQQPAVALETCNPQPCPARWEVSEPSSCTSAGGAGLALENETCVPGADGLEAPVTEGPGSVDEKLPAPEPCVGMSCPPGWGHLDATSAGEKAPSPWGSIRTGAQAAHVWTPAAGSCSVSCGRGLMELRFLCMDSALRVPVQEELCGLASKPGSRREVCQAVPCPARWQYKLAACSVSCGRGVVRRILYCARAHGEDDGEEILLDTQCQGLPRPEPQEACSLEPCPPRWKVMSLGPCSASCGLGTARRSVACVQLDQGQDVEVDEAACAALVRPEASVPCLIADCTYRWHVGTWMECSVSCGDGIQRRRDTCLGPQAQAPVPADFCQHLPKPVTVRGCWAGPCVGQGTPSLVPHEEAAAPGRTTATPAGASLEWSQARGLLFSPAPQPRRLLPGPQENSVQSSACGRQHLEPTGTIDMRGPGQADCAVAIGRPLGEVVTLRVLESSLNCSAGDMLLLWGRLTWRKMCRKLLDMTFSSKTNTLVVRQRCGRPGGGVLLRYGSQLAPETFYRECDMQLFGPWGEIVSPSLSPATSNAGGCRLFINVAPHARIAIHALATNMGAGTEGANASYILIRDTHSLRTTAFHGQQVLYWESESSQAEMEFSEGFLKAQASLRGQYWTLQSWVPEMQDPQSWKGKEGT

[4] = test system: ADAMTS13; assay: ADAMTS13 activity in PRP using peptidyl substrates; format: biochemical, human; details: normal PRP 20 μl, 0.8 mM substrate, 37° C., 10 mM Tris-HCl pH 8.0, Ex 360 nm/Em 460 nm, FIG. 3
Description: as §1
As discussed above, Furlan et al. reported that some peptidyl-pNA moieties, such as XLY-pNA and XVY-pNA, were not substrates for ADAMTS13. We prepared LVY-pNA and tested it for its ability to be cleaved by ADAMTS13. The results shown in FIG. 2 confirm the findings of Furlan et al., i.e., LVY-pNA was not cleaved by ADAMTS13.
In order to determine the effect of modifying the length of the peptide sequence conjugated to the AMC fluorochrome, normal PRP (20 μl) was incubated at 37° C. with a final concentration of 0.8 mM Suc-LLVY-AMC or LVY-AMC in 10 mM Tris-HCl pH 8.0 buffer in total volume of 200 μl. Fluorescence was measured using a microtiter fluorophotometric plate reader (Ex 360 nm/Em 460 nm).

[5] = target: T2, Leu-Val-Tyr-AMC
T2 chain: LVY

[6] = target: T3, NH2-Arg-Lys(DABCYL)-NLVYMVTGD(EDANS)-Arg-COOH
T3 chain: RKNLVYMVTGDR

[7] = target: T4, Suc-Leu-Leu-Val-Tyr-AMC
T4 chain: LLVY

**Q.** With “NH2-Arg-Lys-(DABCYL)-Asn-Leu-Val-Tyr-Met-Val-Thr-Gly-Asp-(EDANS)-Arg-COOH (H-RK(DABCYL)NLVYMVTGD(EDANS)R-OH; SMILES CSCC[C@H](NC(=O)[C@H](Cc1ccc(O)cc1)NC(=O)[C@@H](NC(=O)[C@H](CC(C)C)NC(=O)[C@H](CC(N)=O)NC(=O)[C@H](CCCCNC(=O)c1ccc(/N=N/c2ccc(N(C)C)cc2)cc1)NC(=O)[C@@H](N)CCCNC(=N)N)C(C)C)C(=O)N[C@H](C(=O)N[C@H](C(=O)NCC(=O)N[C@@H](CC(=O)NCCNc1cccc2c(S(=O)(=O)O)cccc12)C(=O)N[C@@H](CCCNC(=N)N)C(=O)O)[C@@H](C)O)C(C)C) [FRET substrate made for American Diagnostica Inc]” as the molecule, how does the “fluorescence on incubation of platelets with FRET substrate (cleavage by platelet ADAMTS13)” value [1] read?
**A.** The value was “increased fluorescence over time”.

**Q.** For “FXIa: activated Factor XI, plasma serine protease”, which “increase of ADAMTS13 activity towards LVY-AMC substrate upon treatment of platelets with FXIa” value ([2]; normal platelets, 1500 seconds) is on record?
**A.** The value was “approximately 8 fold”.

**Q.** What about the “enhancement of activity of platelets by treatment with FXIa” value ([2]; platelets from PRP of an acquired TTP patient, compared with normal individual) of the same molecule?
**A.** The value was “much lesser extent”.

**Q.** activated Factor XI was tested. Which “ADAMTS13 activity towards LVY-AMC substrate” value [3] did it give?
**A.** Its value is “ADAMTS13 activity was significantly increased (by approximately 8-fold) towards LVY-AMC substrate upon treatment of platelets with FXIa”.

**Q.** How did the “cleavage of peptidyl-AMC substrate by ADAMTS13 in PRP” value [4] turn out when “Leu-Val-Tyr-AMC (Leu-Val-Tyr-{AMC}) [LVY-AMC, fluorogenic peptidyl substrate from Bachem Bioscience Inc; also made by QPR]” was run?
**A.** The value was “cleaved”.

B1: platelet ADAMTS13 (protein)
chain: T1 sequence
**Q.** With B1 as the molecule, how does the “fluorescence over time (LVY-AMC cleavage)” value [5] read?
**A.** Its value is “the activity in platelets was due to ADAMTS13 cleaving the LVY-AMC substrate”.

**Q.** What about the “fluorescence over time (FRET substrate cleavage)” value [6] of the same molecule?
**A.** The value was “incubation of platelets with NH2-Arg-Lys(DABCYL)-NLVYMVTGD(EDANS)-Arg-COOH results in increased fluorescence over time”.

B2: recombinant ADAMTS13 (protein)
chain: T1 sequence
**Q.** Which “fluorescence signal (Suc-LLVY-AMC cleavage)” value [7] does the source give for B2 here?
**A.** Its value is “a greater fluorescence signal was produced by the supernatant from transfected cells verses supernatant from mock transfected cells”.
